Literature values in patent publication US8039023B1, “Composition for relief of menstrual cramps and muscle cramps” (priority 2009, dated 2011).

Test system: pain and muscle cramping symptoms
Settings: prior art, various brands, typical

Structure (SMILES)	time after ingestion to reduced discomfort from pain and muscle cramping symptoms
CC(=O)Nc1ccc(O)cc1 [acetaminophen]	twenty to forty
CC(=O)Oc1ccccc1C(=O)O [aspirin]	twenty to forty
CC(C)Cc1ccc(C(C)C(=O)O)cc1 (stereo not drawn) [ibuprofen]	twenty to forty
